Source: patent publication US6455593B1, “Method of dynamic retardation of cell cycle kinetics to potentiate cell damage” (priority 1995, dated 2002)
Where two headings read alike, the source gives them in different places.

Experiments:
[1] = tested on: human promonocytic lymphoma cells (U937); assay: Microculture indicator system (MIS), MTT growth inhibition assay with bivariate serial dilutions; type: cell-based
Outline: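 U937 human promonocytic lymphoma cells were tested in flat-bottom 96-well plates. Two agents were each diluted two-fold by serial mixing, then combined into bivariate dilution series before about 1×10^5 cells per well were added in RPMI 1640 with 10% Nurserum and antibiotics, 100 μl per well. Plates were incubated at 37° C. Thirty μl of 0.5% MTT was then added for 3 hr. Formazan was dissolved overnight with 120 μl of 10 % SDS/0.01 N HCl and absorbance was read at 570 nm against a cell-free blank.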

[2] = tested on: human malignant lymphoma cells (U937); assay: Clonogenic assay in methylcellulose; type: cell-based; settings: Homo sapiens, U-937, 96 h, read-out: Maximum effective cytotoxicity (1-C/C0), clonogenic
Text: Elimination of a targeted cell population by a cytotoxic agent or agent combinations can not be assured if cells with generative capacity survive. The clonogenic assay in soft agar or methylcellulose is a practical and useful means of determining long-term effects of cytotoxic agents on a malignant cell population, since malignant cells are often capable of growing and forming colonies in these media. The colony forming efficiency of any line or population of malignant cells must be established from the colony count in relationship to the inoculum number and varies over a wide range. […] (same protocol as Example 2A, Table 7). Methylcellulose (MC) solution 2.1-2.3% was obtained from Stem Cell Technologies in Vancouver, B.C. and made up in a series of sterile tubes: (a) 0.4 ml MC stock solution, (b) 50 μl of NuSerum, (c) 2×10^4 cells from the treated cell suspension from the 24-well plate (about 250 μl) and (d) complete growth medium to make a final volume of 1 ml (final cell density=about 2×10^4 cells). A syringe with 18 g. needle was used to transfer load 100 μl of each sample the final cell preparation to each of triplicate wells in a 96-well plate. Thus the final cell number was about 2,000 cells/well. Plates were examined daily for colony formation. At days 3-5, colonies were counted. and colonies were overlaid with MTT: 25 μl, incubated overnight at 37° C. and 100 μl of 4% formalin was added to aid visualization and photography. […] The effective cytotoxicity was calculated as 1−C/C0 where C=the number of colonies formed by a sample of treated cells and C0=the number of colonies formed by an equal sample of untreated cells.

[3] = Homo sapiens, U-937, 4 h, U937, dThd […] 4 H, Cisplatin 0, read-out: MTT % inhibition, dThd only

## Cc1cn([C@H]2C[C@H](O)[C@@H](CO)O2)c(=O)[nH]c1=O [dThd, deoxythymidine]
[1]; Homo sapiens, U-937, 4 h, U937, dThd 0.01 mM 4 H, no Cisplatin, read-out: MTT % inhibition, dThd only
  inhibition at 10 µM: 7%
[1]; Homo sapiens, U-937, 4 h, U937, dThd 0.01 mM (column 8, lowest) 4 H, no Cisplatin, read-out: MTT % inhibition, dThd only
  inhibition at 10 µM: 4%
[1]; Homo sapiens, U-937, 4 h, U937, dThd 0.02 mM 4 H, no Cisplatin, read-out: MTT % inhibition, dThd only
  inhibition at 20 µM: 12%
[1]; Homo sapiens, U-937, 4 h, U937, dThd 0.05 mM 4 H, no Cisplatin, read-out: MTT % inhibition, dThd only
  inhibition at 50 µM: 19%
[1]; Homo sapiens, U-937, 4 h, U937, dThd 0.09 mM 4 H, Cisplatin 0, read-out: MTT % inhibition, dThd only
  inhibition at 90 µM: 22%
[1]; Homo sapiens, U-937, 4 h, U937, dThd 3.00 mM 4 H, Cisplatin 0, read-out: MTT % inhibition, dThd only
  inhibition at 3000 µM: 56%
[1]; [3]
  inhibition at 190 µM: 29%
  inhibition at 380 µM: 32%
  inhibition at 760 µM: 40%
  inhibition at 1500 µM: 48%
[1]; Homo sapiens, U-937, U937, dThd 0.01 mM (c20) for 0 H (added with STSP), STSP for 18 H, total 18 H, STSP nM: 100,50,25,12.6,6.25,3.13, r28 dThd alone, read-out: Growth inhibition (MTT), dThd for 0 H, dThd 0.01 mM (ninth dilution)
  inhibition at 10 µM: 4%
[1]; Homo sapiens, U-937, U937, dThd 0.01 mM (c20) for 4 H, STSP for 14 H, total 18 H, STSP nM: 100,50,25,12.5,6.25,3.125, r14 dThd alone, read-out: Growth inhibition (MTT), dThd 0.01 mM (ninth dilution)
  inhibition at 10 µM: -2%
[1]; Homo sapiens, U-937, U937, dThd 0.01 mM (c22, last dilution) for 0 H (added with STSP), STSP for 18 H, total 18 H, STSP nM: 100,50,25,12.6,6.25,3.13, r28 dThd alone, read-out: Growth inhibition (MTT), dThd for 0 H, dThd 0.01 mM (tenth, last dilution)
  inhibition at 10 µM: 3%
[1]; Homo sapiens, U-937, U937, dThd 0.01 mM (c22, last two-fold dilution) for 4 H, STSP for 14 H, total 18 H, STSP nM: 100,50,25,12.5,6.25,3.125, r14 dThd alone, read-out: Growth inhibition (MTT), dThd 0.01 mM (tenth, last dilution)
  inhibition at 10 µM: -7%
[1]; Homo sapiens, U-937, U937, dThd 0.02 mM for 0 H (added with STSP), STSP for 18 H, total 18 H, STSP nM: 100,50,25,12.6,6.25,3.13, r28 dThd alone, read-out: Growth inhibition (MTT), dThd for 0 H, dThd 0.02 mM
  inhibition at 20 µM: 6%
[1]; Homo sapiens, U-937, U937, dThd 0.02 mM for 4 H, STSP for 14 H, total 18 H, STSP nM: 100,50,25,12.5,6.25,3.125, r14 dThd alone, read-out: Growth inhibition (MTT), dThd 0.02 mM
  inhibition at 20 µM: 11%
[1]; Homo sapiens, U-937, U937, dThd 0.05 mM for 4 H, STSP for 14 H, total 18 H, STSP nM: 100,50,25,12.5,6.25,3.125, r14 dThd alone, read-out: Growth inhibition (MTT), dThd 0.05 mM
  inhibition at 50 µM: 10%
[1]; Homo sapiens, U-937, U937, dThd 0.06 mM for 0 H (added with STSP), STSP for 18 H, total 18 H, STSP nM: 100,50,25,12.6,6.25,3.13, r28 dThd alone, read-out: Growth inhibition (MTT), dThd for 0 H, dThd 0.06 mM
  inhibition at 60 µM: 10%
[1]; Homo sapiens, U-937, U937, dThd 0.09 mM for 0 H (added with STSP), STSP for 18 H, total 18 H, STSP nM: 100,50,25,12.6,6.25,3.13, r28 dThd alone, read-out: Growth inhibition (MTT), dThd for 0 H, dThd 0.09 mM
  inhibition at 90 µM: 12%
[1]; Homo sapiens, U-937, U937, dThd 0.09 mM for 4 H, STSP for 14 H, total 18 H, STSP nM: 100,50,25,12.5,6.25,3.125, r14 dThd alone, read-out: Growth inhibition (MTT), dThd 0.09 mM
  inhibition at 90 µM: 14%
[1]; Homo sapiens, U-937, U937, dThd 3.00 mM for 0 H (added with STSP), STSP for 18 H, total 18 H, STSP nM: 100,50,25,12.6,6.25,3.13, r28 dThd alone, read-out: Growth inhibition (MTT), dThd for 0 H, dThd 3.00 mM
  inhibition at 3000 µM: 38%
[1]; Homo sapiens, U-937, U937, dThd 3.00 mM for 4 H, STSP for 14 H, total 18 H, STSP nM: 100,50,25,12.5,6.25,3.125, r14 dThd alone, read-out: Growth inhibition (MTT), dThd 3.00 mM
  inhibition at 3000 µM: 50%
[1]; Homo sapiens, U-937, read-out: Growth inhibition (MTT), dThd […], U937, dThd […] for 4 H, STSP for 14 H, total 18 H, STSP nM: 100,50,25,12.5,6.25,3.125, r14 dThd alone, read-out: Growth inhibition (MTT), dThd 0.19 mM
  inhibition at 190 µM: 18%
[1]; Homo sapiens, U-937, read-out: Growth inhibition (MTT), dThd […], U937, dThd […] for 4 H, STSP for 14 H, total 18 H, STSP nM: 100,50,25,12.5,6.25,3.125, r14 dThd alone, read-out: Growth inhibition (MTT), dThd 0.38 mM
  inhibition at 380 µM: 23%
[1]; Homo sapiens, U-937, read-out: Growth inhibition (MTT), dThd […], U937, dThd […] for 4 H, STSP for 14 H, total 18 H, STSP nM: 100,50,25,12.5,6.25,3.125, r14 dThd alone, read-out: Growth inhibition (MTT), dThd 0.75 mM
  inhibition at 750 µM: 34%
[1]; Homo sapiens, U-937, read-out: Growth inhibition (MTT), dThd […], U937, dThd […] for 4 H, STSP for 14 H, total 18 H, STSP nM: 100,50,25,12.5,6.25,3.125, r14 dThd alone, read-out: Growth inhibition (MTT), dThd 1.5 mM
  inhibition at 1500 µM: 41%
[1]; Homo sapiens, U-937, read-out: Growth inhibition (MTT), dThd for 0 H, dThd […], U937, dThd […] for 0 H (added with STSP), STSP for 18 H, total 18 H, STSP nM: 100,50,25,12.6,6.25,3.13, r28 dThd alone, read-out: Growth inhibition (MTT), dThd for 0 H, dThd 0.19 mM
  inhibition at 190 µM: 15%
[1]; Homo sapiens, U-937, read-out: Growth inhibition (MTT), dThd for 0 H, dThd […], U937, dThd […] for 0 H (added with STSP), STSP for 18 H, total 18 H, STSP nM: 100,50,25,12.6,6.25,3.13, r28 dThd alone, read-out: Growth inhibition (MTT), dThd for 0 H, dThd 0.38 mM
  inhibition at 380 µM: 20%
[1]; Homo sapiens, U-937, read-out: Growth inhibition (MTT), dThd for 0 H, dThd […], U937, dThd […] for 0 H (added with STSP), STSP for 18 H, total 18 H, STSP nM: 100,50,25,12.6,6.25,3.13, r28 dThd alone, read-out: Growth inhibition (MTT), dThd for 0 H, dThd 0.76 mM
  inhibition at 760 µM: 27%
[1]; Homo sapiens, U-937, read-out: Growth inhibition (MTT), dThd for 0 H, dThd […], U937, dThd […] for 0 H (added with STSP), STSP for 18 H, total 18 H, STSP nM: 100,50,25,12.6,6.25,3.13, r28 dThd alone, read-out: Growth inhibition (MTT), dThd for 0 H, dThd 1.50 mM
  inhibition at 1500 µM: 33%
[1]; MTT tests, about 0.05 to 3 mM, preliminary results
  Enhancement of DEET-induced apoptosis as prospective RA: no significant enhancement of the DEET-induced apoptosis
[1]; O/S plots of dThd and STSP, FIG. 15, U937
  dThd concentration at maximum difference between the plots for O and S: approximately 0.1 mM
[1]; U937
  RA concentration for STSP potentiation relative to concentration causing cell cycle arrest: at least one log lower
[1]; U937, dThd 0.02 mM for 0 H (added with STSP), STSP for 18 H, total 18 H, STSP nM: 100,50,25,12.6,6.25,3.13, r27 dThd alone
  Combined results ratio (CRR), dThd for 0 H, dThd 0.02 mM: 1.0
[1]; U937, dThd 0.02 mM for 4 H, STSP for 14 H, total 18 H, STSP nM: 100,50,25,12.5,6.25,3.125, r13 dThd alone
  Combined results ratio (CRR), dThd 0.02 mM: 1.0
[1]; U937, dThd 0.05 mM for 4 H, STSP for 14 H, total 18 H, STSP nM: 100,50,25,12.5,6.25,3.125, r13 dThd alone
  Combined results ratio (CRR), dThd 0.05 mM: 1.0
[1]; U937, dThd 0.06 mM for 0 H (added with STSP), STSP for 18 H, total 18 H, STSP nM: 100,50,25,12.6,6.25,3.13, r27 dThd alone
  Combined results ratio (CRR), dThd for 0 H, dThd 0.06 mM: 1.0
[1]; U937, dThd 0.09 mM for 0 H (added with STSP), STSP for 18 H, total 18 H, STSP nM: 100,50,25,12.6,6.25,3.13, r27 dThd alone
  Combined results ratio (CRR), dThd for 0 H, dThd 0.09 mM: 1.0
[1]; U937, dThd 0.09 mM for 4 H, STSP for 14 H, total 18 H, STSP nM: 100,50,25,12.5,6.25,3.125, r13 dThd alone
  Combined results ratio (CRR), dThd 0.09 mM: 1.0
[1]; U937, dThd 3.00 mM for 0 H (added with STSP), STSP for 18 H, total 18 H, STSP nM: 100,50,25,12.6,6.25,3.13, r27 dThd alone
  Combined results ratio (CRR), dThd for 0 H, dThd 3.00 mM: 1.0
[1]; U937, dThd 3.00 mM for 4 H, STSP for 14 H, total 18 H, STSP nM: 100,50,25,12.5,6.25,3.125, r13 dThd alone
  Combined results ratio (CRR), dThd 3.00 mM: 1.0
[1]; U937, dThd […] for 0 H (added with STSP), STSP for 18 H, total 18 H, STSP nM: 100,50,25,12.6,6.25,3.13, r27 dThd alone
  Combined results ratio (CRR), dThd for 0 H, dThd […]: 1.0
[1]; U937, dThd […] for 4 H, STSP for 14 H, total 18 H, STSP nM: 100,50,25,12.5,6.25,3.125, r13 dThd alone
  Combined results ratio (CRR), dThd […]: 1.0
[1]; U937, dThd alone, every dThd concentration 3.00-0.01 mM
  combined results ratio, dThd only (baseline line): 1.0
[2]
  Emax at 100 µM: 40 to 60%
